Data reported in ChEMBL document CHEMBL1121966, “(2R*,3S*)-1-[125I]Iodo-2,3-bis(4-hydroxyphenyl)pentane ([125I]iodonorhexestrol) and (2R*,3S*)-1-[77Br]Bromo-2,3-bis(4-hydroxyphenyl)pentane ([77Br]bromonorhexestrol), two gamma-emitting estrogens that show receptor-mediated uptake by target tissues in vivo” (1982).

Experiment: Solvolytic stability of compound was measured relative to p-hydroxyphenethyl bromide
Type: functional, Rattus norvegicus

Row | Structure (SMILES) | 1/krel
1 | C[C@]12CC[C@@H]3c4ccc(O)cc4CC[C@H]3[C@@H]1C[C@@H](Br)[C@@H]2O | 1276
2 | C[C@]12CC[C@@H]3c4ccc(O)cc4CC[C@H]3[C@@H]1C[C@@H](CBr)C2O (some centres not stated) | 451
